In patent US7330794B2, “Water monitoring system using bivalve mollusks” (Aqueous Solutions, Inc., priority 2000, dated 2008):

System: bivalve mollusks
Assay: Water screening with bivalve mollusks: shell gape and Degree of Alarm (DOA) on toxicant exposure
Format: in vivo
Experimental: Further calibration of the system is performed after one or more mollusk chambers are properly installed. The digital circuitry or computer 39 then monitors the gape of the mollusk during approximately the first three days after installation. From the gape values derived during this period, the computer derives a natural maximum gape value for the individual mollusk. Subsequent calculations based on output from the mollusk chamber 15 are based on the percentage of gape, i.e., the percentage of the maximum gape output value that the presently detected gape output value represents.
When the system 3 contains a number of mollusk chambers 15, the individual mollusk percentage gape data for all of the mollusks of the system is totaled, and the average percentage gape value calculated periodically per sampling interval by computer 38. This mean data value Gi is the variable used as the mollusk output data for determining if toxicants are present in the water being screened.
In the present specification, Gi means the current average mollusk gape data, Gi−i means the most recent earlier mollusk output value, Gi−2 the next earlier mollusk output variable, etc. The oldest of the gape values is Gi−n+1. Preferably, the set of data values Gi−n+1 to Gi are stored in a FIFO (first-in, first-out) stack data structure in the computer doing the analysis. The stack acts as a shift register, shifting earlier data values as the new data value Gi is acquired. Preferably the value of n is 30, and the data values G are acquired every half-second.
According to an aspect of the invention, the variance over time of the gape values is one of the best statistical indicators of the pumping of the mollusk. By the term variance, what is meant is a determination of the variability of the gape values from a mean value, which may be determined or expressed using a variety of functions. Particularly preferred, however, is the classical calculation of variance as:
In a basic method for toxicant detection, DOA is calculated continuously using the formula DOA=(V·|R|)/M wherein V is the mean variance in gape over a recent period of time, preferably 30 seconds, R is the mean regression of the gape over the period (regression herein meaning the slope of the best-fit line through the data values of the time period). M may be the traveling mean as defined above, or may be the mean gape taken over another longer period, preferably about one hour.
An implementation of this method is shown by the graphs of FIGS. 7 to 10. Water being screened by a system as described previously was loaded with sulphuric acid, resulting in a drop in pH as shown in the graph of FIG. 7.
When the variance is below this threshold value, a first, less sensitive function of the gape data values is used to calculate the DOA value. Such a function might be a linear calculation such as DOA=(1−Gi)*10 which would yield a DOA value between 0 and 10, with 10 corresponding to the mollusk completely closing its shell and strongly indicating presence of toxicant.
When the variance value is greater than or equal to the threshold value, the DOA value may be calculated by a different function which amplifies the calculation from the closing of the shell during the period of high variance. Particularly preferred is a more sensitive high-variance function: DOA=f(Gi)+V/K
An implementation of such a DOA method using a Logistic calculation, with a variance factor added for variances over 50, is illustrated by the graphs of FIGS. 12 to 16.
In this example, a system as in Example 3 was used, only the toxicant introduced was copper (as aqueous CuSO4), as shown in FIG. 17.

[Cl-].[Na+] [chloride, NaCl]
DOA output (chloride, Logistic calculation with variance factor for variances over 50, at 0.5 hours, chloride concentration still relatively low, FIG. 16): greater than 5 | raw gape data, decreasing over time (gradually increasing concentration of chloride (aqueous NaCl), FIG. 13): less than 40 % of normal maximum gape

O=S(=O)([O-])[O-].[Cu+2] [copper, CuSO4]
gape when DOA exceeded 8 (copper (aqueous CuSO4), between 0.5 and 1.0 hours): 50% | DOA values (copper (aqueous CuSO4), system as in Example 3, between 0.5 and 1.0 hours, copper concentration still relatively low, FIG. 21): exceed 8 out of a possible 10

O=S(=O)(O)O [sulphuric acid]
DOA (Degree of Alarm) values, spike (sulphuric acid, DOA=(V·|R|)/M, appears before 200 minutes, FIG. 10): greater than 100 | percentage gape at the variance spike (sulphuric acid, variance spikes shortly before 200 minutes, FIG. 9): ≤ 40% | average percentage gape of the mollusks (water loaded with sulphuric acid (pH drop), shortly after 200 minutes, FIG. 8): less than 10 % of the normal maximum
